Where a name gives a salt, the structure may show the parent alone.
Test: collision cross section in nitrogen (drift tube, single-field); higher = larger gas-phase ion size
[1] = ion type: [M-H], ion source: ESI, ion mode: Negative
[2] = ion type: [M+Na], ion source: ESI, ion mode: Positive
[3] = ion type: [M+H], ion source: APCI, ion mode: Positive
[4] = ion type: [M+H], ion source: ESI, ion mode: Positive
[5] = ion type: [M+], ion source: APCI, ion mode: Positive
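Further: chemical standards at 10 µM analysed by drift tube IMS-QTOF MS in about 3.95 torr nitrogen, mean of duplicate injections differing ≤1%, mass error below 10 ppm.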

Row | Compound | collision cross section in nitrogen [1] [Å²] | collision cross section in nitrogen [2] [Å²] | collision cross section in nitrogen [3] [Å²] | collision cross section in nitrogen [4] [Å²] | other results
1 | CCCCCCOC(=O)CCC [Hexyl butyrate] | 149.7 |  |  |  | 
2 | N#Cc1ccc(O)cc1 [4-Hydroxybenzonitrile] | 118.1 |  |  |  | 
3 | C[C@H]1O[C@@H](O[C@H]2[C@@H](O)C[C@H](O[C@H]3[C@@H](O)C[C@H](O[C@H]4CC[C@@]5(C)[C@H](CC[C@@H]6[C@@H]5C[C@@H](O)[C@]5(C)[C@@H](C7=CC(=O)OC7)CC[C@]65O)C4)O[C@@H]3C)O[C@@H]2C)C[C@H](O)[C@@H]1O [Digoxin] | 269.7 | 276.8 |  |  | 
4 | Cc1ccc(S(=O)(=O)NC(=O)NN2CCCCCC2)cc1 [Tolazamide] | 178.1 | 183.1 | 175.5 | 175.4 | 
5 | O[Si](c1ccccc1)(c1ccccc1)c1ccccc1 [Triphenylsilanol] | 171 |  |  |  | 
6 | OCCOCCOCCOCCOCCO [Pentaethylene glycol] |  | 150.1 |  |  | 
7 | O=C(O)c1cc[c]([Hg][Cl])cc1 [4-Chloromercuribenzoic acid] | 143 |  |  |  | 
8 | O=C1OC2(c3ccc(O)cc3Oc3cc(O)ccc32)c2ccccc21 [Fluorescein] | 176.8 | 190.6 | 174.2 | 174.2 | 
9 | COc1cc(S(=O)(=O)O)c(C)cc1N=Nc1c(O)ccc2cc(S(=O)(=O)O)ccc12 | 214.8 |  |  |  | 
10 | O=C(Nc1ccccc1)Nc1cnns1 [Thidiazuron] |  |  | 148.4 | 147.9 | 
11 | O=C(O)c1ccccc1-n1cc(C(=O)O)c(=O)c2cc(Nc3c(F)cc(F)cc3Cl)c(Cl)cc21 [AVE9423] | 216.1 | 223.5 | 210.6 | 210.8 | 
12 | O=C1c2cccc(O)c2C(=O)c2c(O)cc(CO)cc21 [Aloe-emodin] | 157.1 |  |  |  | 
13 | O=S(=O)(O)c1ccccc1C=Cc1ccc(-c2ccc(C=Cc3ccccc3S(=O)(=O)O)cc2)cc1 [Disodium 4,4'-bis(2-sulfostyryl)biphenyl] | 248.5 |  |  |  | 
14 | OCCNCc1ccccc1 [N-Benzylethanolamine] |  |  |  | 134.9 | 
15 | Oc1ccc(-c2ccccc2)cc1Cl [3-Chloro[1,1′-biphenyl]-4-ol] | 143.8 |  |  |  | 
16 | CCCCC1(COC(=O)CCC(=O)O)C(=O)N(c2ccccc2)N(c2ccccc2)C1=O [Suxibuzone] |  | 204.5 | 201.3 | 200.8 | 
17 | Nc1ccc(Oc2ccc(N)c(N)c2)cc1 [3,4,4'-Triaminodiphenyl ether] |  |  | 159.9 |  | 
18 | COc1cc(Cl)c(OC)cc1N [2,5-Dimethoxy-4-chloroaniline] |  |  |  | 145 | collision cross section in nitrogen [5]: 133 Å²
19 | CCOC(=O)c1ccc(O)cc1 [Ethylparaben] | 136.7 |  |  |  | 
20 | O=c1ccc(=O)[nH][nH]1 [Maleic hydrazide] | 117.8 |  |  |  | 
21 | COc1cc(S(=O)(=O)Nc2ccccc2)c(OC)cc1N [4-Amino-2,5-dimethoxy-N-phenylbenzenesulfonamide] | 169 | 180.5 |  |  | collision cross section in nitrogen [5]: 167.2 Å²

Row | Compound | collision cross section in nitrogen [1] [Å²] | collision cross section in nitrogen [2] [Å²] | collision cross section in nitrogen [3] [Å²] | collision cross section in nitrogen [4] [Å²] | other results
22 | Cc1ccccc1S(=O)(=O)O [2-Methylbenzenesulfonic acid] | 131.9 |  |  |  | 
23 | CCCCCCCCCC[N+](C)(C)[O-] [N,N-Dimethyldecylamine oxide] |  | 166.7 |  | 164.1 | 
24 | c1ccc(N=NNc2ccccc2)cc1 [Diazoaminobenzene] |  |  |  | 147 | 
25 | Oc1c(Cl)ccc(Cl)c1Cl [2,3,6-Trichlorophenol] | 128.9 |  |  |  | 
26 | CCOP(=O)(O)OCC [Diethyl hydrogen phosphate] | 129.2 |  |  |  | 
27 | CN1C(=O)CC[C@H]1c1cccnc1 [Cotinine] |  |  |  | 144.8 | 
28 | O=S(=O)(O)C(F)(F)C(F)(F)C(F)(F)C(F)(F)C(F)(F)C(F)(F)C(F)(F)C(F)(F)F [Lithium perfluorooctanesulfonate] | 168.3 |  |  |  | 
29 | CC[N+](CC)(CC)CC [Tetraethylammonium bromide] |  |  |  |  | collision cross section in nitrogen (ion source: ESI, ion mode: Positive, ion type: [M]+ (permanent cation)): 125.7 Å²
30 | Cc1nc(N(C)C)nc(OC(=O)N(C)C)c1C [Pirimicarb] |  | 164.2 | 152 | 156.4 | 
31 | COP(=O)(NC(C)=O)SC (configuration not stated) [Acephate] | 133.9 | 141 |  |  | 
32 | CCOC(=O)c1ccc(N(C)C)cc1 [Parbenate] |  |  | 149.3 | 149.6 | 
33 | CC(C)(O)c1ccc(CNC(=O)c2cccnc2Oc2ccc3nonc3c2)cc1 | 201 | 191.5 | 196.9 |  | 
34 | CCCCCCCCCCCC(=O)N(C)CC(=O)O [Glycine, N-methyl-N-(1-oxododecyl)-, sodium salt] | 169.5 | 175.8 |  |  | 
35 | CCCCN(CCCC)C(=O)N(CCCC)CCCC [1,1,3,3-Tetrabutylurea] |  | 194 | 177.3 | 177.9 | 
36 | c1cnc2c(c1)ccc1cccnc12 [1,10-Phenanthroline] |  | 146 | 131.3 | 132.4 | 
37 | c1nc[nH]n1 [1H-1,2,4-Triazole] | 107.7 |  |  |  | 
38 | NC(=O)c1nc(-c2cccc(-c3cc(F)ccc3OCC(F)(F)C(F)(F)F)c2)n[nH]1 | 195.5 | 190.9 | 189.4 | 189.1 | 
39 | COc1cccc2c1cc([N+](=O)[O-])c1c(C(=O)O)cc3c(c12)OCO3 [Sodium aristolochate-I] |  | 185.6 |  |  | 
40 | Nc1ccc(F)c([N+](=O)[O-])c1 [4-Fluoro-3-nitroaniline] | 121.9 |  |  |  | 
41 | CN(C)C(=O)Nc1ccc(Oc2ccc(Cl)cc2)cc1 [Chloroxuron] |  | 183.1 | 175.3 | 174.9 | 
42 | CCOC(=O)COc1cc(-c2nn(C)c(OC(F)F)c2Cl)c(F)cc1Cl [Pyraflufen-ethyl] |  | 198.4 |  | 188 | 

Row | Compound | collision cross section in nitrogen [1] [Å²] | collision cross section in nitrogen [2] [Å²] | collision cross section in nitrogen [3] [Å²] | collision cross section in nitrogen [4] [Å²] | other results
43 | Cc1ccc2[nH]nnc2c1 [5-Methyl-1H-benzotriazole] | 125.2 |  | 125.1 | 124.8 | 
44 | O=C(CC(C(=O)OC1CCCCC1)S(=O)(=O)O)OC1CCCCC1 (configuration not stated) [Dicyclohexyl sodium sulfosuccinate] | 188.4 |  |  |  | 
45 | O=S(=O)(O)NC1CCCCC1 [Cyclamic acid] | 139.6 |  |  |  | 
46 | O=S(=O)(c1ccc(OCc2ccccc2)cc1)c1ccccc1O [BPS-MPE4] | 183.9 | 201.9 |  | 186.1 | 
47 | CC(C)c1nnc2ccc(-c3ocnc3-c3cc(F)ccc3F)cn12 | 178.7 | 196.3 | 177.3 | 177 | 
48 | CCCCCCCCCCCCCCCCCC(=O)O [Octadecanoic acid] | 177.2 |  |  |  | 
49 | CC1(C)OC[C@@H]2O[C@@]3(C(=O)O)OC(C)(C)O[C@H]3[C@@H]2O1 [Diprogulic acid] | 162.8 | 160.6 |  |  | 
50 | CC(C)c1ccc(O)c(C(C)C)c1 [2,4-Diisopropylphenol] | 146.7 |  |  |  | 
51 | CN(C)P(=O)(N(C)C)N(C)C [Hexamethylphosphoramide] |  | 152.8 | 134.4 | 135.3 | 
52 | CC(C)C1(C)N=C(c2ncccc2C(=O)O)NC1=O (configuration not stated) [Imazapyr] | 161.8 | 173.1 | 156.5 | 156.7 | 
53 | Cc1ccc(NC=O)c(C)c1 [N-(2,4-Dimethylphenyl)formamide] | 133.8 |  |  |  | 
54 | CCC(=O)OCC(COC(=O)CC)OC(=O)CC [Tripropionin] |  | 161.2 |  |  | 
55 | CCCCCCCCCCCCN1CCCC1=O [1-Dodecyl-2-pyrrolidinone] |  | 176.6 |  | 176.3 | 
56 | OC[C@H]1O[C@@H]2O[C@H]3[C@H](O)[C@@H](O)[C@@H](O[C@H]4[C@H](O)[C@@H](O)[C@@H](O[C@H]5[C@H](O)[C@@H](O)[C@@H](O[C@H]6[C@H](O)[C@@H](O)[C@@H](O[C@H]7[C@H](O)[C@@H](O)[C@@H](O[C@H]1[C@H](O)[C@H]2O)O[C@@H]7CO)O[C@@H]6CO)O[C@@H]5CO)O[C@@H]4CO)O[C@@H]3CO [alpha-Cyclodextrin] | 286.4 | 278.5 |  | 277.8 | 
57 | Cc1cc(N=Nc2c(O)ccc3ccccc23)c(S(=O)(=O)O)cc1Cl [C.I. Pigment Red 53] | 187.2 |  |  |  | 
58 | CC(C)c1ccc2c(c1)CC[C@H]1[C@](C)(CN)CCC[C@]21C [Dehydroabietylamine acetate] |  |  | 188.9 |  | 
59 | CCCCOCCOCCO [2-(2-Butoxyethoxy)ethanol] |  | 141.5 |  |  | 
60 | CCOP(=O)(OCC)SCCSCC [Demeton-S] |  | 162.4 |  |  | 
61 | CC(=O)Nc1cc(S(=O)(=O)O)cc2cc(S(=O)(=O)O)c(N=Nc3ccccc3)c(O)c12 [C.I. Acid Red 1] | 210.2 |  |  |  | 
62 | CCc1c(C(=O)NN2CCCCC2)nn(-c2ccc(Cl)cc2Cl)c1-c1ccc(Br)cc1 [Surinabant] | 226.6 | 232.1 | 224.8 | 224.1 | 
63 | CCOc1ccc(NC(=O)OC(C)C)cc1OCC [Diethofencarb] | 171.9 | 177.1 |  |  | 

— the supplement of paper PMC12317010
